In ChEMBL document CHEMBL3639081, “Azabicyclo compound and salt thereof” (2014) one finds IC50 data, which are given here for one compound.

pIC50: −log10 of the molar value.

This test concerns the target Heat shock protein HSP 90-alpha (Homo sapiens, UniProt P07900). The test can be described thus: AlphaScreen Competitive Assay: The HSP90-binding activity was measured by an AlphaScreen competitive assay system. The purified HSP90 solution was diluted with a binding buffer (50 mM Tris-HCl (pH 7.5), 150 mM NaCl, 0.1% Triton-X100, 1 mM DTT, 0.1% BSA) and added to a 384-well plate (No. 3673, Corning Incorporated) containing test substances. After reaction at room temperature for 2 hr, biotin-labeled geldanamycin was added to each reaction solution in an amount of 40 nM, followed by reaction for further 1 hr. Detection mix (20 mM HEPES-KOH (pH 7.5), 0.5% BSA, 0.04 mg/mL Nickel Chelate Acceptor beads, 0.04 mg/mL Streptavidin-coated Donor beads) (No. 6760619C, Perkin Elmer, Inc.) was added to each well in the same amount as that of the reaction solution. After reaction in a dark place at room temperature for 1 hr, the fluorescence intensity in each well was measured with a multilabel plate reader, EnVision (Perkin Elmer, Inc.). For orientation: In Alpha technology, singlet oxygen from a donor bead excites a nearby acceptor bead.

A word on the pIC50: it is the IC50 on a negative log10 scale, so that one unit is a factor of ten. As to `COc1cc(C(N)=O)ccc1-n1nc(C(C)C)c2c(-n3cnc(-c4cnn(C)c4)c3)ccnc21`, the negative-log IC50 (pIC50) was 7.05.
